Reference: patent publication US8481077B2, “Microbubbles and methods for oxygen delivery” (The Trustees of Columbia University in the City of New York, priority 2007, dated 2013)

Tests used:
[1] = main phase transition temperature, solid to fluid phase; cited from earlier work
[2] = Main phase transition temperature (Tm) and reduced temperature (TR) of microbubble lipids; format: physicochemical; conditions: reduced temperature T/Tm in Kelvin
Description: As used herein, the “phase transition temperature” (Tm) refers to the temperature at which lipid assemblies transition from a solid (crystalline) phase to a fluid (liquid crystalline) phase. For example, 1,2-Dipentadecanolyl-sn-Glycero-3-Phosphoeholine (C15) has a Tm of 33° C. Thus this lipid is in the solid phase at room temperature and transitions to the fluid phase when it is injected into the body.
Shell cohesion, as a function of acyl chain length, may be represented by the reduced temperature (TR), which is equal to the ratio of the ambient temperature (or “working temperature”) (T) to the main phase transition temperature (Tm) of the lipid (in Kelvin). For TR>1, the shell is in an expanded (fluid) state at the working temperature. For TR<1, the shell is in a condensed (solid) state at the working temperature. See Table 2 for a list of lipids with their corresponding main phase transition temperatures (Tm) and reduced temperatures (TR).

[3] = tested on: desaturated, venous whole blood; conditions: 0.2 mL added to 2 mL blood, one inversion
Description: In one test tube, 0.2 mL of the microbubbles were added to 2 mL of desaturated, venous whole blood.
The test tubes were inverted once, and co-oximetry and blood gas values measurements were taken using a Radiometer ABL800 X blood gas machine.

SMILES | Tm (° C.) [1] [°C] | TR at 25° C. [2] | TR at 37° C. [2] | PCO2 [3] [mmHg] | PO2 [3] [mmHG] | oxygenated hemoglobin (oxyHb) [3] [%] | pH [3]
CCCCCCCCCCCC(=O)OC[C@H](COP(=O)([O-])OCC[N+](C)(C)C)OC(=O)CCCCCCCCCCC [C12, 1,2-Dilauroyl-sn-Glycero-3-Phosphocholine] | −1 | 1.10 | 1.14 |  |  |  | 
CCCCCCCCCCCCCC(=O)OC[C@H](COP(=O)([O-])OCC[N+](C)(C)C)OC(=O)CCCCCCCCCCCCC [C14, 1,2-Dimyristoyl-sn-Glycero-3-Phosphocholine] | 23 | 1.01 | 1.05 |  |  |  | 
CCCCCCCCCCCCCCC(=O)OC[C@H](COP(=O)([O-])OCC[N+](C)(C)C)OC(=O)CCCCCCCCCCCCCC [C15, 1,2-Dipentadecanoyl-sn-Glycero-3-Phosphocholine] | 33 | 0.97 | 1.01 |  |  |  | 
CCCCCCCCCCCCCCCC(=O)OC[C@H](COP(=O)([O-])OCC[N+](C)(C)C)OC(=O)CCCCCCCCCCCCCCC [C16, 1,2-Dipalmitoyl-sn-Glycero-3-Phosphocholine] | 41 | 0.95 | 0.99 |  |  |  | 
CCCCCCCCCCCCCCCCCC(=O)OC[C@H](COP(=O)(O)OCCN)OC(=O)CCCCCCCCCCCCCCCCC [C18, 1,2-Distearoyl-sn-Glycero-3-Phosphoethanolamine] | 55 | 0.91 | 0.95 |  |  |  | 
O=O [unencapsulated oxygen, oxygen] |  |  |  | 59 | 33 | 59 | 7.33
